“And” between values parts separate entries of the source, which are not always exact repeats. Identical values can stand only once.
What was measured:
Eclipta prostrata [1] = assay: Herbicidal activity against two to three-leaf stage Eclipta prostrata assessed as inhibition of plant growth at 150 g/ha in greenhouse by post-emergence herbicidal activity assay; assay type: functional; settings: read-out: GI
[2] = tested on: Brassica rapa subsp. oleifera; assay: Herbicidal activity against Brassica rapa subsp. oleifera assessed as inhibition of rape root growth at 450 g/ha by pre-emergence herbicidal activity assay; assay type: functional; settings: read-out: GI
[3] = tested on: Brassica rapa subsp. oleifera; assay: Herbicidal activity against Brassica rapa subsp. oleifera assessed as inhibition of rape root growth at 450 g/ha by postemergence herbicidal activity assay; assay type: functional; settings: post-emergence, read-out: GI
[4] = tested on: Brassica rapa subsp. oleifera; assay: Herbicidal activity against Brassica rapa subsp. oleifera assessed as inhibition of rape root growth; assay type: functional, organism-based
[5] = Inhibition of Oryza sativa (rice) PDHc by spectrophotometric assay
Pisum sativum = assay: Herbicidal activity against 2 to 3 leaf stage Pisum sativum assessed as inhibition of plant growth at 450 g/ha in greenhouse by postemergence herbicidal activity assay; assay type: functional; settings: Lathyrus oleraceus, post-emergence; read-out: GI
Brassica juncea = assay: Herbicidal activity against two to three-leaf stage Brassica juncea assessed as inhibition of plant growth at 450 g/ha in greenhouse by post-emergence herbicidal activity assay; assay type: functional; settings: read-out: GI
Oryza sativa = assay: Herbicidal activity against two to three-leaf stage Oryza sativa (rice) assessed as inhibition of plant growth at 450 g/ha in greenhouse by postemergence herbicidal activity assay; assay type: organism-based; settings: in vivo, other
Echinochloa crus-galli = assay: Herbicidal activity against 2 to 3 leaf stage Echinochloa crus-galli (barnyard grass) assessed as inhibition of plant growth at 450 g/ha in greenhouse by postemergence herbicidal activity assay; assay type: functional; settings: for inhibition of growth at 450 g/ha: Echinochloa crus-galli, post-emergence, read-out: GI
Eclipta prostrata [6] = assay: Herbicidal activity against two to three-leaf stage Eclipta prostrata assessed as inhibition of plant growth at 450 g/ha in greenhouse by post-emergence herbicidal activity assay; assay type: functional; settings: read-out: GI
Amaranthus retroflexus [7] = assay: Herbicidal activity against 2 to 3 leaf stage Amaranthus retroflexus assessed as inhibition of plant growth at 450 g/ha in greenhouse by postemergence herbicidal activity assay; assay type: functional; settings: post-emergence, read-out: GI
Abutilon theophrasti [8] = assay: Herbicidal activity against two to three-leaf stage Abutilon theophrasti (velvetleaf) assessed as inhibition of plant growth at 450 g/ha in greenhouse by post-emergence herbicidal activity assay; assay type: functional; settings: read-out: GI
[9] = tested on: Brassica rapa subsp. oleifera; assay: Herbicidal activity against two to three-leaf stage Brassica rapa subsp. oleifera assessed as inhibition of plant growth at 450 g/ha in greenhouse by postemergence herbicidal activity assay; assay type: functional; settings: post-emergence, read-out: GI
Amaranthus retroflexus [10] = assay: Herbicidal activity against 2 to 3 leaf stage Amaranthus retroflexus assessed as inhibition of plant growth at 150 g/ha in greenhouse by postemergence herbicidal activity assay; assay type: functional; settings: post-emergence, read-out: GI
[11] = tested on: Brassica rapa subsp. oleifera; assay: Herbicidal activity against two to three-leaf stage Brassica rapa subsp. oleifera assessed as inhibition of plant growth at 150 g/ha in greenhouse by postemergence herbicidal activity assay; assay type: functional; settings: post-emergence, read-out: GI
Abutilon theophrasti [12] = assay: Herbicidal activity against two to three-leaf stage Abutilon theophrasti (velvetleaf) assessed as inhibition of plant growth at 150 g/ha in greenhouse by post-emergence herbicidal activity assay; assay type: functional; settings: read-out: GI
[13] = biological target: T1, Pyruvate dehydrogenase complex (Pisum sativum, UniProt P52902+P52904); assay: Inhibition of Pisum sativum (pea) PDHc by spectrophotometric assay; assay type: protein-complex assay, Lathyrus oleraceus
T1 sequence (P52902 whole entry): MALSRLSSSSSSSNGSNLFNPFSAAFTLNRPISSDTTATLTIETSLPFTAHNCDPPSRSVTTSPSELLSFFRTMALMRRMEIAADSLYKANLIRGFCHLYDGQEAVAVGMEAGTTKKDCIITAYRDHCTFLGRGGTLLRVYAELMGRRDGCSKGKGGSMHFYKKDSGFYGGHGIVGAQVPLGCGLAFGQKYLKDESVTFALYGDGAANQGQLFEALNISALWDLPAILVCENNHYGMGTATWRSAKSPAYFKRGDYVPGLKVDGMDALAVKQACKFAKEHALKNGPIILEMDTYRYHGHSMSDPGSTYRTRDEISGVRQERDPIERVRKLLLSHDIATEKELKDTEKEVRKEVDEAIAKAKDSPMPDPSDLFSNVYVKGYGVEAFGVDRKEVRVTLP
T1 sequence (P52904 whole entry): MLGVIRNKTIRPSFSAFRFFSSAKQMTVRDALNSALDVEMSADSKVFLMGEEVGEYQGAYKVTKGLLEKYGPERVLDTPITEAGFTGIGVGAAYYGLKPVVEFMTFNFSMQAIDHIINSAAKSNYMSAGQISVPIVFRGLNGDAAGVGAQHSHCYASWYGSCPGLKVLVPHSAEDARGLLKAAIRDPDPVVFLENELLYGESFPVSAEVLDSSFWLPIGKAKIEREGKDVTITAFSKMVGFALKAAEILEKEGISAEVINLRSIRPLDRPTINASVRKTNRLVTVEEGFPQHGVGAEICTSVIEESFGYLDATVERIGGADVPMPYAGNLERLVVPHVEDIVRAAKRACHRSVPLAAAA

Compound	inhibition of growth at 150 g/ha (Eclipta prostrata [1]) [%]	inhibition of growth at 450 g/ha [2] [%]	inhibition of growth at 450 g/ha [3] [%]	IC50 [4] [µM]	IC50 [5] [µM]	inhibition of growth at 450 g/ha (Pisum sativum) [%]	inhibition of growth at 450 g/ha (Brassica juncea) [%]	growth inhibition (GI) (Oryza sativa) [%]	growth inhibition (GI) (Echinochloa crus-galli)	inhibition of growth at 450 g/ha (Eclipta prostrata [6]) [%]	inhibition of growth at 450 g/ha (Amaranthus retroflexus [7]) [%]	inhibition of growth at 450 g/ha (Abutilon theophrasti [8]) [%]	inhibition of growth at 450 g/ha [9] [%]	inhibition of growth at 150 g/ha (Amaranthus retroflexus [10]) [%]	inhibition of growth at 150 g/ha [11] [%]	inhibition of growth at 150 g/ha (Abutilon theophrasti [12]) [%]	IC50 [13] [µM]	inhibition of growth at 450 g/ha (Echinochloa crus-galli) [%]
COP(=O)(OC)C(C)OC(=O)COc1ccc(Cl)cc1Cl (stereo not given) [CLACYFOS]	90	96	98	0.0344	867	97.5	100	0	35% and 100%	0	100	100	100	91	92	95		
COP(=O)(O)C(O)c1ccco1 (stereo not given)		23	20	> 4670		0					0						> 4670	17.5
COP(=O)([O-])COC(=O)COc1ccc(Cl)cc1Cl.[Na+]					29.1	52.5	93	12			92							10
COP(=O)([O-])C(C)OC(=O)COc1ccc(Cl)cc1Cl.[Na+] (stereo not given)					0.29	71.5	100	27			98							50
COP(=O)(OC)C(OC(=O)COc1cccc(C(F)(F)F)c1)c1ccccn1 (stereo not given)						0	60	0			77.5						> 2300	0
CCC(OC(=O)COc1ccc(Cl)cc1Cl)P(=O)([O-])OC.[Na+] (stereo not given)					18.9	90	94.5	27			97							30
COP(=O)(O)C(C)=O [SODIUM METHYL ACETYLPHOSPHONATE]																	70	
COP(=O)(OC)C(C)=O [DIMETHYL ACETYLPHOSPHONATE]		34	45	1880														
CCCC(OC(=O)COc1ccc(Cl)cc1Cl)P(=O)([O-])OC.[Na+] (stereo not given)					3.26	77.5	96	22			97							45
O=C(O)COc1ccc(Cl)cc1Cl [2,4-DICHLOROPHENOXYACETIC ACID]	90	98	90	0.0556		97.5	100				100			92	92.5	93	> 4530	35
COP(=O)(OC)C(C)O (stereo not given) [DIMETHYL 1-HYDROXYETHYLPHOSPHONATE]		36	30	2400														
COP(=O)(OC)C(O)c1ccco1 (stereo not given)		25	20	> 4670														
COP(=O)(OC)C(OC(=O)COc1ccc(F)cc1F)c1cccs1 (stereo not given)	60									70	70	75	80	60	70	60		
COP(=O)(OC)C(OC(=O)COc1cccc(C)c1C)c1cccs1 (stereo not given)	0									70	40	0	0	40	0	0		
COP(=O)(OC)C(OC(=O)COc1ccc(F)cc1Cl)c1cccs1 (stereo not given)	80									85	100	90	95	90	75	70		
COP(=O)(O)C(=O)c1ccco1		20	30	3240		35					25						389	25
COP(=O)(OC)C(=O)c1ccco1		56	50	237														
COP(=O)(OC)C(OC(=O)COc1ccc(Br)cc1)c1cccs1 (stereo not given)	60									60	60	70	75	50	70	50		
COP(=O)(OC)C(OC(=O)COc1ccc(Cl)cc1Cl)c1cccs1 (stereo not given)	80									100	100	100	100	90	90	90		

From ChEMBL document CHEMBL3044788, “α-(Substituted-phenoxyacetoxy)-α-heterocyclylmethylphosphonates: synthesis, herbicidal activity, inhibition on pyruvate dehydrogenase complex (PDHc), and application as postemergent herbicide against broadleaf weeds” (J Agric Food Chem, 2013)
